Assay results from BindingDB's records for doi:10.1016/s0960-894x(03)00628-0 (Wyeth Research, 2003).

Experiment: Inhibition of Src protein tyrosine kinase

- IC50: > 10 µM
SMILES: COCCOc1cc2nc3ncnc(Nc4cc(OC)c(Cl)cc4Cl)c3cc2cc1OC [(2,4-Dichloro-5-methoxy-phenyl)-[7-methoxy-8-(2-methoxy-ethoxy)-pyrimido[4,5-b]quinolin-4-yl]-amine]
